We go through 14 compounds from ChEMBL document CHEMBL1158630, “Synthesis, docking studies, and evaluation of pyrimidines as inhibitors of SARS-CoV 3CL protease” (Bioorg Med Chem Lett, 2010).

Where only a bound is given, the exact number is not on record here.

The target of the assay is Replicase polyprotein 1a (Severe acute respiratory syndrome-related coronavirus, UniProt P0C6U8). Put plainly: Inhibition of SARS coronavirus chymotrypsin-like protease by fluorescence plate reader.
A word on the IC50: it is the concentration that gives 50% inhibition. Higher therefore signals a need for much substance. On to `Cc1ccc(-c2nc(SCc3ccccc3)[nH]c(=O)c2C#N)cc1`, for which the IC50 was greater than 50 µM.

`COc1ccc(-c2nc(SCc3ccc([N+](=O)[O-])cc3)[nH]c(=O)c2C#N)cc1` had an IC50 of 26.3 µM.

As to `N#Cc1c(-c2ccccc2)nc(SCCc2ccccc2)[nH]c1=O`, the 50% inhibitory concentration (IC50) is greater than 50 µM. With `COc1ccc(-c2nc(SCc3ccccc3)[nH]c(=O)c2C#N)cc1`, the IC50 is greater than 50 µM. The compound `Cc1ccc(-c2nc(SCCc3ccccc3)[nH]c(=O)c2C#N)cc1` showed an IC50 greater than 50 µM. As for `N#Cc1c(-c2cccc(Cl)c2)nc(SCc2ccccc2)[nH]c1=O`, the figure is greater than 50 µM; as for `N#Cc1c(-c2ccc(Cl)cc2)nc(SCc2ccc([N+](=O)[O-])cc2)[nH]c1=O`, 6.1 µM. Turning to `N#Cc1c(-c2cccc([N+](=O)[O-])c2)nc(SCCc2ccccc2)[nH]c1=O`, the IC50 was greater than 50 µM. Compound `N#Cc1c(-c2ccccc2)nc(SCc2ccccc2)[nH]c1=O` returned a half-inhibitory concentration (IC50) greater than 50 µM.

`N#Cc1c(-c2ccc(Cl)cc2)nc(SCCc2ccccc2)[nH]c1=O` returned an IC50 of 16.9 µM. As to `N#Cc1c(-c2cccc([N+](=O)[O-])c2)nc(SCc2ccc([N+](=O)[O-])cc2)[nH]c1=O`, inhibition was half-maximal at 10.6 µM (IC50).

The compound `N#Cc1c(-c2ccccc2)nc(SCc2ccc([N+](=O)[O-])cc2)[nH]c1=O` showed an IC50 of 35.2 µM. As for `Cc1ccc(-c2nc(SCc3ccc([N+](=O)[O-])cc3)[nH]c(=O)c2C#N)cc1`, the figure is greater than 50 µM; as for `COc1ccc(-c2nc(SCCc3ccccc3)[nH]c(=O)c2C#N)cc1`, 20.3 µM.
